Reference: US12503448B2, “Antibacterial and antiparasitic quinoxaline-2,3-diamine derivatives” (University College Cardiff Consultants Limited, priority 2019, dated 2025)
≈ marks a conversion by molar mass, not a printed value. Where two headings read alike, the source gives them in different places.

Legend:
MRSA USA 300 = assay: In vitro antibacterial activity; type: cell-based; settings: Staphylococcus aureus
E. coli ATCC 25922 = assay: In vitro antibacterial activity; type: cell-based; settings: Escherichia coli, ATCC25922
[1] = system: Streptococcus pneumoniae 18778; assay: Antibacterial MIC (ISO 20776-1); type: cell-based
Excerpt: (§1) In vitro Determination of Antibacterial Activity
(§2) Scientific Reports 8 (1), 2018. Bacterial strains of Enterococcus faecalis—ATCC 29212, NCTC 12201, ATCC 51299; Streptococcus pneumoniae—ATCC 49619, 18778, 21394, 21395; Haemophilus influenza—ATCC 49766, 18391, 17428; Staphylococcus aureus—NCTC 12493, ATCC BAA-077, ATCC 700698, 11051; used for testing the compounds, as previously described in “Clinical laboratory testing and in vitro diagnostics test systems—Susceptibility testing of infectious agents and evaluation of performance of antimicrobial susceptibility devices—Part 1: Reference methods for testing the in vitro activity of antimicrobial agentes against bacteria involved in infectious diseases, ISO/FDIS 20776-1:2006(E). All the procedures were carried out in a biosafety containment level 2.

[2] = system: Staphylococcus aureus ATCC BAA-977; assay: Antibacterial MIC (ISO 20776-1); type: cell-based; settings: ATCCBAA977
Excerpt: as §1, §2

[3] = system: Enterococcus faecalis ATCC 29212; assay: Antibacterial MIC (ISO 20776-1); type: cell-based; settings: ATCC29212
Excerpt: as §1, §2

[4] = system: Streptococcus pneumoniae 21395; assay: Antibacterial MIC (ISO 20776-1); type: cell-based
Excerpt: as §1, §2

[5] = system: Enterococcus faecalis NCTC 12201; assay: Antibacterial MIC (ISO 20776-1); type: cell-based; settings: NCTC12201; Enterococcus faecalis NCTC 12201, Vancomycin resistance, vanA
Excerpt: as §1, §2

[6] = system: Staphylococcus aureus ATCC 700698; assay: Antibacterial MIC (ISO 20776-1); type: cell-based; settings: ATCC700698
Excerpt: as §1, §2

[7] = system: Haemophilus influenzae 17428; assay: Antibacterial MIC (ISO 20776-1); type: cell-based; settings: Haemophilus influenzae 17428, Ampicillin resistance, PBP
Excerpt: as §1, §2

[8] = system: Staphylococcus aureus 11051; assay: Antibacterial MIC (ISO 20776-1); type: cell-based
Excerpt: as §1, §2

[9] = system: Streptococcus pneumoniae ATCC 49619; assay: Antibacterial MIC (ISO 20776-1); type: cell-based; settings: ATCC49619
Excerpt: as §1, §2

[10] = system: Haemophilus influenzae 18391; assay: Antibacterial MIC (ISO 20776-1); type: cell-based; settings: Haemophilus influenzae 18391, AMP/COA resistance, PBP/β-lactamase
Excerpt: as §1, §2

[11] = system: Haemophilus influenzae ATCC 49766; assay: Antibacterial MIC (ISO 20776-1); type: cell-based; settings: ATCC49766
Excerpt: as §1, §2

[12] = system: Staphylococcus aureus NCTC 12493; assay: Antibacterial MIC (ISO 20776-1); type: cell-based; settings: NCTC12493
Excerpt: as §1, §2

[13] = system: Enterococcus faecalis ATCC 51299; assay: Antibacterial MIC (ISO 20776-1); type: cell-based; settings: ATCC51299; Enterococcus faecalis ATCC 51299, Vancomycin resistance, vanB
Excerpt: as §1, §2

[14] = system: Streptococcus pneumoniae 21394; assay: Antibacterial MIC (ISO 20776-1); type: cell-based
Excerpt: as §1, §2

MRSA EM RSA = assay: In vitro antibacterial activity; type: cell-based; settings: Staphylococcus aureus
Excerpt: as §1, §2

[15] = system: M. smegmatis mc^2 15 ATCC 700084; assay: In vitro antibacterial activity; type: cell-based, Mycobacterium smegmatis; settings: Mycolicibacterium smegmatis, ATCC700084
[16] = system: Pseudomonas aeruginosa ATCC 27853; assay: In vitro antibacterial activity; type: cell-based; settings: ATCC27853
S. mansoni schistosomula = assay: 72 hours schistosomula drug screen; type: cell-based, Schistosoma mansoni; settings: for Selectivity Index Schistosomula: HepG2 CC50 over schistosomula EC50; for EC50: Schistosoma mansoni
Outline: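 Newly transformed S. mansoni schistosomula were screened for 72 h in 384-well format. Phenotype and motility were scored, and a schistosomula average was derived.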

[17] = Streptococcus pneumoniae, 18778
[18] = Streptococcus pneumoniae, 21395
[19] = Streptococcus pneumoniae, 21394
[20] = schistosomula, 72 hour culture, read-out: EC50 Motility
[21] = schistosomula, 72 hour culture, read-out: EC50 Phenotype
[22] = Staphylococcus aureus ATCC 700698, Vancomycin resistance, hVISA, read-out: MIC
[23] = E. coli ATCC 25922, read-out: MIC90
[24] = Streptococcus pneumoniae 18778, ERY, TET resistance, read-out: MIC
[25] = Staphylococcus aureus ATCC BAA-977, ERY/CLIND resistance, MLSB, read-out: MIC
[26] = Enterococcus faecalis ATCC 29212, read-out: MIC
[27] = Streptococcus pneumoniae 21395, ERY, CLIND resistance, MLSB, read-out: MIC
[28] = Staphylococcus aureus 11051, Tetracycline resistance, read-out: MIC
[29] = Streptococcus pneumoniae ATCC 49619, read-out: MIC
[30] = Staphylococcus aureus NCTC 12493, Flucloxacillin resistance, mecA, read-out: MIC
[31] = Streptococcus pneumoniae 21394, Penicillin resistance, PBP, read-out: MIC
[32] = M. smegmatis mc^2 15 ATCC 700084, read-out: MIC90
[33] = Pseudomonas aeruginosa ATCC 27853, read-out: MIC90
[34] = average of phenotype and motility, read-out: EC50 Schistosomula average

| SMILES | MIC90 (MRSA USA 300) [µg/mL] | MIC90 (E. coli ATCC 25922) [µg/mL] | MIC [1, 17] [µg/mL] | MIC ([2]; Staphylococcus aureus) [µg/mL] | MIC ([3]; Enterococcus faecalis) [µg/mL] | MIC [4, 18] [µg/mL] | MIC [5] [µg/mL] | MIC [7] [µg/mL] | MIC ([8]; Staphylococcus aureus, 11051) [µg/mL] | MIC ([9]; Streptococcus pneumoniae) [µg/mL] | MIC [10] [µg/mL] | MIC [11] [µg/mL] | MIC ([12]; Staphylococcus aureus) [µg/mL] | MIC [13] [µg/mL] | MIC [14, 19] [µg/mL] | MIC90 (MRSA EM RSA) [µg/mL] | Selectivity Index Schistosomula (S. mansoni schistosomula) | EC50 (S. mansoni schistosomula; [20]) [nM] | EC50 (S. mansoni schistosomula; [21]) [nM] | MIC [6, 22] [µg/mL] | further results |
| --- | --- | --- | --- | --- | --- | --- | --- | --- | --- | --- | --- | --- | --- | --- | --- | --- | --- | --- | --- | --- | --- |
| O=[N+]([O-])c1ccc2nc(Nc3cccc(Cl)c3)c(Nc3cccc(Cl)c3)nc2c1 [Compound 5, N^2, N^3-bis(3-chlorophenyl)-6-nitroquinoxaline-2,3-diamine] | 3.91 (≈ 9.17 µM) | > 125 | 8 (≈ 18.8 µM) | 0.125 (≈ 0.293 µM) | 0.25 (≈ 0.586 µM) | 4 (≈ 9.38 µM) | 0.06 (≈ 0.141 µM) | 8 (≈ 18.8 µM) | 0.125 (≈ 0.293 µM) | 4 (≈ 9.38 µM) | 8 (≈ 18.8 µM) | 4 (≈ 9.38 µM) | 0.06 (≈ 0.141 µM) | 0.25 (≈ 0.586 µM) | 4 (≈ 9.38 µM) | 3.91 (≈ 9.17 µM) | 5 | 1300 | 1220 |  | MIC ([6]; Staphylococcus aureus): 0.125 µg/mL (≈ 0.293 µM); MIC90 [15]: > 125 µg/mL; MIC90 ([16]; Pseudomonas aeruginosa): > 125 µg/mL |
| O=[N+]([O-])c1ccc2nc(Nc3ccc(F)c(C(F)(F)F)c3)c(Nc3ccc(F)c(C(F)(F)F)c3)nc2c1 [Compound 7, N^2, N^3-bis(4-fluoro-3-(trifluoromethyl)phenyl)-6-nitroquinoxaline-2,3-diamine] | < 3.91 | 62.5 (≈ 118 µM) | 32 (≈ 60.5 µM) | 0.5 (≈ 0.945 µM) | 1 (≈ 1.89 µM) | 8 (≈ 15.1 µM) | 0.5 (≈ 0.945 µM) | > 64 | 0.5 (≈ 0.945 µM) | 8 (≈ 15.1 µM) | > 64 | > 64 | 0.5 (≈ 0.945 µM) | 0.5 (≈ 0.945 µM) | 32 (≈ 60.5 µM) | 7.81 (≈ 14.8 µM) | 14 | 540 | 540 | 0.5 (≈ 0.945 µM) | MIC90 [15]: 62.5 µg/mL (≈ 118 µM); MIC90 ([16]; Pseudomonas aeruginosa): > 125 µg/mL |
| O=[N+]([O-])c1ccc2nc(Nc3ccc(C(F)(F)F)cc3)c(Nc3ccc(C(F)(F)F)cc3)nc2c1 [Compound 11, 6-nitro-N^2, N^3-bis(4-(trifluoromethyl)phenyl)quinoxaline-2,3-diamine] | < 3.91 |  |  |  |  |  | 0.06 (≈ 0.122 µM) | 16 (≈ 32.4 µM) |  |  | 16 (≈ 32.4 µM) | 16 (≈ 32.4 µM) |  | 0.25 (≈ 0.507 µM) |  | 3.91 (≈ 7.93 µM) | 33 | 530 | 420 | 0.125 (≈ 0.253 µM) | MIC90 (E. coli ATCC 25922; [23]): > 125 µg/mL; MIC [1, 24]: 4 µg/mL (≈ 8.11 µM); MIC [2, 25]: 0.125 µg/mL (≈ 0.253 µM); MIC [3, 26]: 0.06 µg/mL (≈ 0.122 µM); MIC [4, 27]: 2 µg/mL (≈ 4.05 µM); MIC [8, 28]: 0.125 µg/mL (≈ 0.253 µM); MIC [9, 29]: 2 µg/mL (≈ 4.05 µM); MIC [12, 30]: 0.125 µg/mL (≈ 0.253 µM); MIC [14, 31]: 4 µg/mL (≈ 8.11 µM); MIC90 [15, 32]: 31.2 µg/mL (≈ 63.3 µM); MIC90 [16, 33]: > 125 µg/mL; EC50 (S. mansoni schistosomula; [34]): 480 nM |
| COc1ccc(Nc2nc3ccc([N+](=O)[O-])cc3nc2Nc2ccc(OC)c(C(F)(F)F)c2)cc1C(F)(F)F [Compound 12, N^2, N^3-bis(4-methoxy-3-(tritluoromethyl)phenyl)-6-nitroquinoxaline-2,3-diamine] | 15.6 (≈ 28.2 µM) |  |  |  |  |  | 0.5 (≈ 0.903 µM) | > 128 |  |  | 64 (≈ 116 µM) | 64 (≈ 116 µM) |  | 1 (≈ 1.81 µM) |  | 31.2 (≈ 56.5 µM) | 9 | 650 | 570 | 1 (≈ 1.81 µM) | MIC90 (E. coli ATCC 25922; [23]): > 125 µg/mL; MIC [1, 24]: 16 µg/mL (≈ 28.9 µM); MIC [2, 25]: 1 µg/mL (≈ 1.81 µM); MIC [3, 26]: 0.5 µg/mL (≈ 0.903 µM); MIC [4, 27]: 8 µg/mL (≈ 14.5 µM); MIC [8, 28]: 2 µg/mL (≈ 3.61 µM); MIC [9, 29]: 8 µg/mL (≈ 14.5 µM); MIC [12, 30]: 1 µg/mL (≈ 1.81 µM); MIC [14, 31]: 8 µg/mL (≈ 14.5 µM); MIC90 [15, 32]: > 125 µg/mL; MIC90 [16, 33]: > 125 µg/mL; EC50 (S. mansoni schistosomula; [34]): 610 nM |
